# Source: PubChem BioAssay (NCI)
#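 1) Cells in 96-well plates. 2) Compound, 48 h, 5 concentrations. 3) Linear interpolation between surrounding doses. 4) Unreached endpoint = highest concentration. Abbreviation: GI50, concentration required for 50% inhibition of growth. The concentration for full growth arrest is given as TGI.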
# Key:
# Assay in all cases: NCI tumour cell line growth inhibition, 48 h
# NCI-H460 lung = tested on: NCI-H460 lung
# COLO 205 colon = tested on: COLO 205 colon
# HCC-2998 colon = tested on: HCC-2998 colon
# M14 melanoma = tested on: M14 melanoma
# MOLT-4 leukemia = tested on: MOLT-4 leukemia
# RXF 393 renal = tested on: RXF 393 renal
# OVCAR-3 ovarian = tested on: OVCAR-3 ovarian
# LOX IMVI melanoma = tested on: LOX IMVI melanoma
# HOP-92 NSCLC = tested on: HOP-92 NSCLC
# MCF7 breast = tested on: MCF7 breast
Compound,TGI (NCI-H460 lung) [µM],TGI (COLO 205 colon) [µM],TGI (HCC-2998 colon) [µM],TGI (M14 melanoma) [µM],TGI (MOLT-4 leukemia) [µM],TGI (RXF 393 renal) [µM],TGI (OVCAR-3 ovarian) [µM],TGI (LOX IMVI melanoma) [µM],TGI (HOP-92 NSCLC) [µM],GI50 (NCI-H460 lung) [µM],GI50 (COLO 205 colon) [µM],GI50 (HCC-2998 colon) [µM],GI50 (RXF 393 renal) [µM],GI50 (OVCAR-3 ovarian) [µM],GI50 (LOX IMVI melanoma) [µM],GI50 (HOP-92 NSCLC) [µM],GI50 (MCF7 breast) [µM],TGI (MCF7 breast) [µM],GI50 (M14 melanoma) [µM],GI50 (MOLT-4 leukemia) [µM]
CON1C(=O)C2(CCCCC2)C(=O)C12C=CC(C)CC2 (stereo unspecified),> 100,> 100,> 100,> 100,> 100,> 100,> 100,> 100,,,,,,,,,,,,
NCCCNCc1c2ccccc2c(CNCCCN)c2ccccc12,32.6,22.8,30.9,,43.9,35.7,98.5,,49.1,,,,,,,,,,,
Oc1ccc(O)c(-n2cccn2)c1,> 100,46.2,> 100,> 100,59.5,> 100,,> 100,93.2,,,,,,,,,,,
COc1nc(NC2OC(COC(C)=O)C(OC(C)=O)C(OC(C)=O)C2OC(C)=O)c(N=C(C)C(C)=O)c(=O)n1C (stereo unspecified),> 100,> 100,> 100,> 100,> 100,> 100,> 100,> 100,> 100,,,,,,,,,,,
CSc1nc2c(nc(N)n2C2OC(CO)C(O)C(O)C2O)c(=O)[nH]1 (stereo unspecified),> 100,> 100,> 100,> 100,> 100,> 100,> 100,> 100,> 100,,,,,,,,,,,
COC(=O)CCCCCOS(=O)(=O)c1ccc(C)cc1,> 100,> 100,> 100,> 100,> 100,> 100,> 100,> 100,> 100,,,,,,,,,,,
C[N+]1(CCNP(=S)(NCC[N+]2(C)Cc3c(ccc4c3OCO4)C3C2c2cc4c(cc2C[C@@H]3O)OCO4)NCC[N+]2(C)Cc3c(ccc4c3OCO4)C3C2c2cc4c(cc2C[C@@H]3O)OCO4)Cc2c(ccc3c2OCO3)C2C1c1cc3c(cc1C[C@H]2O)OCO3 (stereo partly specified),,,,< 0.00191,,,,,,0.976,1.65,5.22,1.76,1.68,1.92,3.43,,,,
OC(c1cc2ccccc2[nH]1)C(O)(c1cc2ccccc2[nH]1)c1cc2ccccc2[nH]1 (stereo unspecified),51.3,8.85,44.3,,> 245,29.1,9.13,41.8,50.1,,,,,,,,,,,
C/C(=N\NC(=O)c1ccccc1O)c1c(O)cc(C)oc1=O,> 100,> 100,> 100,> 100,> 100,> 100,> 100,> 100,68.3,,,,,,,,,,,
O=c1cc(-c2ccccc2)oc2c(O)c(O)ccc12,> 100,53.9,> 100,41.4,> 100,52.7,6.18,> 100,,4.44,18.3,23.8,9.95,2.19,9.58,,20,> 100,9.55,5.09
CC(=O)O[C@H]1CC[C@@]2(C)C(=CC[C@H]3C(CC#N)[C@@](C)(C#N)CCC32)C1 (stereo partly specified),> 100,> 100,> 100,> 100,> 100,> 100,> 100,> 100,88.9,,,,,,,,,,,
CC(=O)NNc1ncc(C(=O)/C=C/c2ccccc2C)s1,> 100,> 100,> 100,,> 100,> 100,> 100,> 100,> 100,,,,,,,,,,,
COc1cccc(/C=C2\N=C(Cl)OC2=O)c1O,> 100,> 100,> 100,> 100,> 100,> 100,> 100,> 100,> 100,,,,,,,,,,,
CCCCSC1CCSc2c1ccc1ccccc21 (stereo unspecified),,> 100,> 100,> 100,> 100,> 100,,,> 100,,,,,,,,,,,
NC1=C(O)/C(=N/NS(=O)(=O)c2ccccc2)C(c2ccc3c(c2)OCO3)O1 (stereo unspecified),> 100,> 100,> 100,> 100,> 100,> 100,> 100,> 100,> 100,,,,,,,,,,,
Clc1ccc(-c2nnc(-c3nn(-c4ccccc4)c4nc5ccccc5nc34)o2)cc1,> 100,> 100,> 100,> 100,81.6,> 100,> 100,> 100,,,,,,,,,,,,
COc1ccc(/C=C/c2cc(OC)c(OC)c(OC)c2)cc1OC,> 100,> 100,> 100,> 100,> 100,> 100,> 100,> 100,> 100,,,,,,,,,,,
CCCC(=O)Oc1ccc(/C=N/NC(N)=S)nc1,> 100,> 100,> 100,> 100,> 100,> 100,> 100,> 100,> 100,,,,,,,,,,,
C=CCN=C1NC(=O)C(CC(=O)Nc2cccc(Cl)c2)S1 (stereo unspecified),> 100,> 100,> 100,> 100,> 100,> 100,> 100,> 100,,,,,,,,,,,,
CC(=O)N(N=O)c1ccc(N(N=O)C(C)=O)cc1,> 100,> 100,> 100,> 100,> 100,> 100,> 100,> 100,> 100,,,,,,,,,,,
Cn1nc(-c2ccccc2)c2c(/C=C/c3ccc(F)cc3)onc2c1=O,> 100,> 100,,> 100,> 100,70.7,,> 100,> 100,,,,,,,,,,,
CO/S(=N/S(=O)(=O)c1ccccc1)c1ccccc1[N+](=O)[O-] (stereo unspecified),> 100,> 100,> 100,> 100,> 100,,> 100,> 100,,,,,,,,,,,,
